Data as given in paper PMC6839502 (Journal of Alzheimer's Disease, 2019).
Read-outs that look alike come from different tables or passages of the source.

Experiments:
[1] = cited from earlier work
[2] = system: fur, hair and skin pigmentation; conditions: cited from earlier work; for Fur and skin pigmentation: mice, rats, or dogs following chronic dosing regimens
[3] = system: BACE1 over CatD; conditions: cited from earlier work
[4] = system: CSF Aβ; conditions: cited from earlier work; for Reduction in CSF Aβ: healthy older subjects; for Reduction of CSF Aβ40: healthy adults and older subjects combined; for Average reduction of steady state CSF Aβ40: mild-to-moderate AD patients
[5] = system: BACE1 over BACE2; conditions: cited from earlier work
[6] = Safety and tolerability in study B8271007; type: in vivo, human; conditions: single oral dose of 2 mg midazolam alone (period 1)

## CC#Cc1cncc(-c2ccc3c(c2)[C@@]2(N=C(C)C(N)=N2)[C@]2(CC[C@H](OC)CC2)C3)c1 [AZD3293]
[1]
  Liver toxicity in clinical studies: liver toxicity was not reported
[2]; animal studies
  Hair depigmentation: hair depigmentation
[2]
  Fur and skin pigmentation: fur and skin pigment loss
[3]
  Selectivity for BACE1 over CatD: good selectivity
[4]; 15 mg QD
  Reduction in CSF Aβ: approximately 51%
[4]; 50 mg QD
  Reduction in CSF Aβ: ~76%

## C[C@@]1(c2nc(NC(=O)c3ncc(C(F)(F)F)cc3Cl)ccc2F)CO[C@@](C)(C(F)(F)F)C(N)=N1 [CNP520]
[1]
  Liver toxicity in clinical studies: liver toxicity was not reported
[2]; long-term treatment in mice or dogs
  Hair depigmentation: did not result in any hair depigmentation
[5]
  Selectivity for BACE1 over BACE2 in vitro: 3 fold

## C[C@@]1(c2cc(NC(=O)c3ccc(C#N)cn3)ccc2F)C=CSC(N)=N1 [JNJ-54861911]
[1]; Phase II and Phase IIb/III studies
  Liver toxicity in clinical studies: concerns over abnormal liver enzymes leading to the termination
[4]; 5 mg QD
  Reduction of CSF Aβ40: approximately 50%
[4]; 25 mg QD
  Reduction of CSF Aβ40: ~80%

## NC1=N[C@@]2(c3cc(NC(=O)c4ccc(F)cn4)ccc3F)COC[C@H]2CS1 [LY2886721]
[1]; Phase II study
  Liver toxicity in clinical studies: concerns over abnormal liver enzymes leading to the termination

## CN1C(=N)N[C@](C)(c2cc(NC(=O)c3ccc(F)cn3)ccc2F)CS1(=O)=O [MK-8931]
[1]
  Liver toxicity in clinical studies: liver toxicity was not reported
[2]; animal studies
  Hair depigmentation: hair depigmentation
[4]; 12 mg QD
  Average reduction of steady state CSF Aβ40: 57%
[4]; 40 mg QD
  Average reduction of steady state CSF Aβ40: 79%

## Cc1cc(C#N)cnc1C(=O)Nc1ccc(F)c([C@]2(C)CO[C@@](C)(C(F)(F)F)C(N)=N2)c1 [NB-360]
[2]
  Fur and skin pigmentation: fur and skin pigment loss

## Cc1ncc2n1-c1ccc(Cl)cc1C(c1ccccc1F)=NC2 [midazolam, reference compound]
[6]
  TEAEs deemed treatment related: none
  TEAEs reported: three
